Columns and labels:
[1] = Inhibition of p38 kinase
[2] = target: T1, Receptor-type tyrosine-protein kinase FLT3 (Homo sapiens, UniProt P36888); test: Inhibition of FLT3
T1 sequence (P36888 whole entry): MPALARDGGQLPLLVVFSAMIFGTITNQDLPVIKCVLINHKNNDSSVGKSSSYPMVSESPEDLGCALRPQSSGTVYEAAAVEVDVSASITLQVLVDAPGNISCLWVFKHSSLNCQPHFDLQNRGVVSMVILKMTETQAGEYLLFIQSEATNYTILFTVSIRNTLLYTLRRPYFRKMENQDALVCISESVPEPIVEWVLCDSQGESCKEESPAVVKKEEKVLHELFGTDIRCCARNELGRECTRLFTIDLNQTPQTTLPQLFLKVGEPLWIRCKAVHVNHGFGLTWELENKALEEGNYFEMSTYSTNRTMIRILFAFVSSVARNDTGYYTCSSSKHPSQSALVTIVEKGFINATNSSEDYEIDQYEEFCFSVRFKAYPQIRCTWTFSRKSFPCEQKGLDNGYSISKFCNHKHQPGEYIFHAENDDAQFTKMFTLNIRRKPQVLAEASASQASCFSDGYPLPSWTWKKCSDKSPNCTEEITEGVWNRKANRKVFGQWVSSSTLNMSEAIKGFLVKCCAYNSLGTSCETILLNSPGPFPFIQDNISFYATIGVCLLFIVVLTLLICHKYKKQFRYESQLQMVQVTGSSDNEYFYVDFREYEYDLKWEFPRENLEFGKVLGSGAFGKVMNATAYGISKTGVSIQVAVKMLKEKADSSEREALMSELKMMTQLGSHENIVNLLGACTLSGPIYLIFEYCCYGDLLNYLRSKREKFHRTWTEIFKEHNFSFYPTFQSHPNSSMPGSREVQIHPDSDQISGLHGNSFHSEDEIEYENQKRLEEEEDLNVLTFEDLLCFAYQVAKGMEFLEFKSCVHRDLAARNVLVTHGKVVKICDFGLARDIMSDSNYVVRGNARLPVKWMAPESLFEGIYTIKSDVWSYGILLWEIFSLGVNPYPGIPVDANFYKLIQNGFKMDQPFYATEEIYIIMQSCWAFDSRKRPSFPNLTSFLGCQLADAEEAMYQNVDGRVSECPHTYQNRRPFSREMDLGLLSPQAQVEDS

[3] = target: Hepatocyte growth factor receptor (Homo sapiens, UniProt P08581); test: Inhibition of cMet
Chain of Hepatocyte growth factor receptor (P08581 whole entry): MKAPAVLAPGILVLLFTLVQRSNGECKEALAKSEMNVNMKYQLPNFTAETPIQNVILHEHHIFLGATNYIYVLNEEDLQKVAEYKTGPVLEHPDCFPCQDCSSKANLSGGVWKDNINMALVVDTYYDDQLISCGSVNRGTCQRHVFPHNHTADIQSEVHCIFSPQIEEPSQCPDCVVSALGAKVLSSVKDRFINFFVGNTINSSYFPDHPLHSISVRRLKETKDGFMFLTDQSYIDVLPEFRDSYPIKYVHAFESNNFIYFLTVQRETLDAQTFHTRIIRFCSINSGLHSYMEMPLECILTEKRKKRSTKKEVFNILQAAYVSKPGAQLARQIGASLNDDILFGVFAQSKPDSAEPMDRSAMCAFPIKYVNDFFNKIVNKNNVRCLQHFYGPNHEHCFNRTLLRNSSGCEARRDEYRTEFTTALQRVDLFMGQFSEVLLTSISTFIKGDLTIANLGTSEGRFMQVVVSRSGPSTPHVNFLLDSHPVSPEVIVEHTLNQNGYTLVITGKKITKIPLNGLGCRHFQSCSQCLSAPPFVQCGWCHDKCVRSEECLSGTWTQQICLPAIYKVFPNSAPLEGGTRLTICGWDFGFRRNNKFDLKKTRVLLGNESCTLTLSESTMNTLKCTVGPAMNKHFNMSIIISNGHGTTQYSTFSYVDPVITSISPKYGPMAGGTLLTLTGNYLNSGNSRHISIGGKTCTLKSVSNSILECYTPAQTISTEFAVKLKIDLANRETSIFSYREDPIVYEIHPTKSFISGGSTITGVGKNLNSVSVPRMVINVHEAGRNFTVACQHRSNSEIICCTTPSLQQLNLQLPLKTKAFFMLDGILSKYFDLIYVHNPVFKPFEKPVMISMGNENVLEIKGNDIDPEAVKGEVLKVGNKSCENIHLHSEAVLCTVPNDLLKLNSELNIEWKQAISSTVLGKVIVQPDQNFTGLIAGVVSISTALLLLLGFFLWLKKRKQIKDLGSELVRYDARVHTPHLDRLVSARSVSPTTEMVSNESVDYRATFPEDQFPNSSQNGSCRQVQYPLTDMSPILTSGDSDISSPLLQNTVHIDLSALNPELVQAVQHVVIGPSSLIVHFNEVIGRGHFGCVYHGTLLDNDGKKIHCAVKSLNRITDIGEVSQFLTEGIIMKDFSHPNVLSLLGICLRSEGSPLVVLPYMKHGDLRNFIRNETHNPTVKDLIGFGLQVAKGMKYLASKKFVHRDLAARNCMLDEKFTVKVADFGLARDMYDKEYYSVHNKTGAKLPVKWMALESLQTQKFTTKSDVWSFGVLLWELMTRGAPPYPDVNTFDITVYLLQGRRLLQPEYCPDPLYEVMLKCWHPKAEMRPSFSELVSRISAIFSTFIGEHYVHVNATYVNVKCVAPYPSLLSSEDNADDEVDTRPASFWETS

[4] = target: Insulin-like growth factor 1 receptor (Homo sapiens, UniProt P08069); test: Inhibition of IGF1R
[5] = target: Tyrosine-protein kinase JAK2 (Homo sapiens, UniProt O60674); test: Inhibition of JAK2
Chain of Tyrosine-protein kinase JAK2 (O60674 whole entry): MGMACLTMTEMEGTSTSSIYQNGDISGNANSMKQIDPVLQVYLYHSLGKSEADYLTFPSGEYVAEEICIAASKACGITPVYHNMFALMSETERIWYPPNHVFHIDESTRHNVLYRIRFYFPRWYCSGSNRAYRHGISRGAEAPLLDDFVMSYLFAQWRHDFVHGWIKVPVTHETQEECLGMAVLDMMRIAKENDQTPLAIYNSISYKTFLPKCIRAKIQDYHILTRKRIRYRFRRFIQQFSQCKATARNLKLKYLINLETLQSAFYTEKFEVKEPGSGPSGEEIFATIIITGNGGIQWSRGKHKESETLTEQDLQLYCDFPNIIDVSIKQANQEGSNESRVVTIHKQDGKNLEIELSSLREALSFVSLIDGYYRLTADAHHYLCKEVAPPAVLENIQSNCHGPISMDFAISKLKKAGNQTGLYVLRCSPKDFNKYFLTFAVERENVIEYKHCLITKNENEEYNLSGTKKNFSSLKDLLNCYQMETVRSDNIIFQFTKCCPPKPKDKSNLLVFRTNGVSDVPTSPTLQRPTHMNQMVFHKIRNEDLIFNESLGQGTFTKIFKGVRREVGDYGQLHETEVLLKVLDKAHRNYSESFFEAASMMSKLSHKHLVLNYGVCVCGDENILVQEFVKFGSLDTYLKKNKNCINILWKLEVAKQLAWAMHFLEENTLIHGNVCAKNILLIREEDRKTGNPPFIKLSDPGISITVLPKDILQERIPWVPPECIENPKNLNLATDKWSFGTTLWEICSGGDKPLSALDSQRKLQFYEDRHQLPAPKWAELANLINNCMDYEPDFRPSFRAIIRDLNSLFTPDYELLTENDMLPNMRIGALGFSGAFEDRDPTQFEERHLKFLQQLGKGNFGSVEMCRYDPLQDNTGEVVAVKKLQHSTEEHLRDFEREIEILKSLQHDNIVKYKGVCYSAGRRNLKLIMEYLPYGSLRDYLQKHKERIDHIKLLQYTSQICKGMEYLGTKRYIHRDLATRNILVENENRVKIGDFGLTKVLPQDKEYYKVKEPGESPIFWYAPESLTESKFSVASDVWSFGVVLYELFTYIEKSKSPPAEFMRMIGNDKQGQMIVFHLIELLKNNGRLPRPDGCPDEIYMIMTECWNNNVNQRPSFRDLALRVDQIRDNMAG

[6] = target: Cyclin-dependent kinase 2 (Homo sapiens, UniProt P24941); test: Inhibition of CDK2
[7] = Inhibition of PKA
[8] = target: RAC-alpha serine/threonine-protein kinase (Homo sapiens, UniProt P31749); test: Inhibition of PKB
Chain of RAC-alpha serine/threonine-protein kinase (P31749 whole entry): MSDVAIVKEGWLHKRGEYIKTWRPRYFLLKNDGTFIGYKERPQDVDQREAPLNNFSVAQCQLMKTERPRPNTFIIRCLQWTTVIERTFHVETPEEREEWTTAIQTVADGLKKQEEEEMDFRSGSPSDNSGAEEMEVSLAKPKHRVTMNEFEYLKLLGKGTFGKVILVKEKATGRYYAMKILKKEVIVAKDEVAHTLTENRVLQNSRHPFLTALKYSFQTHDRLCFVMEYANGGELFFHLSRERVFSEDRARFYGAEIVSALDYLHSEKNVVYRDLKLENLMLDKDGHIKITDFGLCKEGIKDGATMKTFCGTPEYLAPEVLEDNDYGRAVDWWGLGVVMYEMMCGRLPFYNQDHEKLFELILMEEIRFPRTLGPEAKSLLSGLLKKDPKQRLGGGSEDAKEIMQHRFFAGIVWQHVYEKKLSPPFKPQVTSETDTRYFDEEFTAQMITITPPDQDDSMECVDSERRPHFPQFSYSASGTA

[9] = target: T2, Tyrosine-protein kinase receptor UFO (Homo sapiens, UniProt P30530); test: Inhibition of Axl kinase
T2 sequence (P30530 whole entry): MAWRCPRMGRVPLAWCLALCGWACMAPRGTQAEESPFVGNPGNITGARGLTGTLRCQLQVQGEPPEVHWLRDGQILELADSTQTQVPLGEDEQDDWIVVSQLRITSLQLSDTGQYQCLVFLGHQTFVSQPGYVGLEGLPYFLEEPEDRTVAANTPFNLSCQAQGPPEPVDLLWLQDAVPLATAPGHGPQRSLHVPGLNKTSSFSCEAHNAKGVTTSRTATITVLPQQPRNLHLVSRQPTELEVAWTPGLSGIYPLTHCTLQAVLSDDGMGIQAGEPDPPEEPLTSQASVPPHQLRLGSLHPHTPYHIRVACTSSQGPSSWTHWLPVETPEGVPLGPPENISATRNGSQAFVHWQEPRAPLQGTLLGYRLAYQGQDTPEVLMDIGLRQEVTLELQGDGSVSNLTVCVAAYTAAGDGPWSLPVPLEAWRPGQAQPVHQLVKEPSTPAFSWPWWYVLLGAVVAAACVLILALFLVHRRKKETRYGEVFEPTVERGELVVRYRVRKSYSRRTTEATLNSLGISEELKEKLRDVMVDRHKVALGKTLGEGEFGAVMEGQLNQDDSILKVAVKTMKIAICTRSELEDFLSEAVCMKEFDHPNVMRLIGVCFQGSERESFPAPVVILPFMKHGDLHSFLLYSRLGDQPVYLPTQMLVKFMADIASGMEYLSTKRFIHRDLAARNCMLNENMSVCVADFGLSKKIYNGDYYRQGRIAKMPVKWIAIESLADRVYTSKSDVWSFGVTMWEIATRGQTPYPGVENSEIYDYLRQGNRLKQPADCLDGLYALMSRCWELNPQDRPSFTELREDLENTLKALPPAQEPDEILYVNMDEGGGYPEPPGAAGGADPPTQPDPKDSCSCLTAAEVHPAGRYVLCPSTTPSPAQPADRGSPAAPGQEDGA

[10] = target: Proto-oncogene tyrosine-protein kinase Src (Homo sapiens, UniProt P12931); test: Inhibition of cSrc
[11] = target: Fibroblast growth factor receptor 1 (Homo sapiens, UniProt P11362); test: Inhibition of FGFR1
[12] = target: Mast/stem cell growth factor receptor Kit (Homo sapiens, UniProt P10721); test: Inhibition of cKit
[13] = target: Vascular endothelial growth factor receptor 2 (Homo sapiens, UniProt P35968); test: Inhibition of KDR
Angiopoietin-1 receptor = Angiopoietin-1 receptor (Homo sapiens, UniProt Q02763); test: Inhibition of Tie2
[14] = target: Serine/threonine-protein kinase B-raf (Homo sapiens, UniProt P15056, V600E); test: Inhibition of bRaf V599E mutant
Chain of Serine/threonine-protein kinase B-raf (P15056 2-766 V600E limits assumed): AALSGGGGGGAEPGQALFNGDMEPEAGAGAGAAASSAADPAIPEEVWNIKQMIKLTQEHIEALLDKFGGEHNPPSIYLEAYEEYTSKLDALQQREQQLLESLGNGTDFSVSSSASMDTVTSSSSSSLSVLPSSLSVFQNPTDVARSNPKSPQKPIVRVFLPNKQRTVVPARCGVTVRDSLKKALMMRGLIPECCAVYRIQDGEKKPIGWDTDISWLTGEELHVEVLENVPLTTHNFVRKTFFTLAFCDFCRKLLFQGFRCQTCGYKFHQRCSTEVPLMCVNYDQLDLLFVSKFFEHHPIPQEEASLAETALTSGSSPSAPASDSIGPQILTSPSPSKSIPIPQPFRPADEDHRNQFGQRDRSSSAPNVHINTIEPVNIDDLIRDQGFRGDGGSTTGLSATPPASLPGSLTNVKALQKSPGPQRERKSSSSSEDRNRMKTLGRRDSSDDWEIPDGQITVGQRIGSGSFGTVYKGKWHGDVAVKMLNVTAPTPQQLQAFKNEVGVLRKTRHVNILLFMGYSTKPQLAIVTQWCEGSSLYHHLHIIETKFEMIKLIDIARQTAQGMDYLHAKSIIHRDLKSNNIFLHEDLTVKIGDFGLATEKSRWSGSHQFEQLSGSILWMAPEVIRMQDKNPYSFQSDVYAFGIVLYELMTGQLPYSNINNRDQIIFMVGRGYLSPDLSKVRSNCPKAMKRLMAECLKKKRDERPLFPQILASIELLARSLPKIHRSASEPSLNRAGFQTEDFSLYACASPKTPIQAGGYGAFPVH

Ephrin type-B receptor 4 = target: T3, Ephrin type-B receptor 4 (Homo sapiens, UniProt P54760); test: Inhibition of EphB4
T3 sequence (P54760 whole entry): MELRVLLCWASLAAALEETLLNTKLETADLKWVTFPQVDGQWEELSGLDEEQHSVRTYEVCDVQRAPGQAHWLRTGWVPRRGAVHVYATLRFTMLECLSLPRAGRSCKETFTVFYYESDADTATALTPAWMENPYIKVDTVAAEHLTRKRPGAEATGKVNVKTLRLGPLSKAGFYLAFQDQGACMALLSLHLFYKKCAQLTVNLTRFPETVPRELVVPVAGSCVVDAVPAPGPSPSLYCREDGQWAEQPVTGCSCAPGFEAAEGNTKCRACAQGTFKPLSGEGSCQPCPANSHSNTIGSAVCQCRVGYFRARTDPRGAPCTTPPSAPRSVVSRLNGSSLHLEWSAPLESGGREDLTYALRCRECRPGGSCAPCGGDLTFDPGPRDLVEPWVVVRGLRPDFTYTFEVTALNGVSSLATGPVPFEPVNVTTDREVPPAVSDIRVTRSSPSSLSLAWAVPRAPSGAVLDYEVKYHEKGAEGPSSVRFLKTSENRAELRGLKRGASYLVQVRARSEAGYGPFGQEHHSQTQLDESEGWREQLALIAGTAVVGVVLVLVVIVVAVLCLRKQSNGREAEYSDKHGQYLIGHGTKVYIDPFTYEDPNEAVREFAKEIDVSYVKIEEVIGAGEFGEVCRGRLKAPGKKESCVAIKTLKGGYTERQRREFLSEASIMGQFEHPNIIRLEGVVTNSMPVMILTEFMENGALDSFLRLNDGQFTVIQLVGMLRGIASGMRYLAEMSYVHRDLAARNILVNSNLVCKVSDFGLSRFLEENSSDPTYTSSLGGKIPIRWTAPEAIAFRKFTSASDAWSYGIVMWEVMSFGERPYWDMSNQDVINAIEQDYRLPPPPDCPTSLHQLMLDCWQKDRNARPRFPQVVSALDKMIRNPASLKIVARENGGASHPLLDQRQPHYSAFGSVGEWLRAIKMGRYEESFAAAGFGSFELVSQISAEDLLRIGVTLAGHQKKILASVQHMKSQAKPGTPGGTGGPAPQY

[15] = target: Tyrosine-protein kinase ABL1 (Homo sapiens, UniProt P00519)
Chain of Tyrosine-protein kinase ABL1 (P00519 whole entry): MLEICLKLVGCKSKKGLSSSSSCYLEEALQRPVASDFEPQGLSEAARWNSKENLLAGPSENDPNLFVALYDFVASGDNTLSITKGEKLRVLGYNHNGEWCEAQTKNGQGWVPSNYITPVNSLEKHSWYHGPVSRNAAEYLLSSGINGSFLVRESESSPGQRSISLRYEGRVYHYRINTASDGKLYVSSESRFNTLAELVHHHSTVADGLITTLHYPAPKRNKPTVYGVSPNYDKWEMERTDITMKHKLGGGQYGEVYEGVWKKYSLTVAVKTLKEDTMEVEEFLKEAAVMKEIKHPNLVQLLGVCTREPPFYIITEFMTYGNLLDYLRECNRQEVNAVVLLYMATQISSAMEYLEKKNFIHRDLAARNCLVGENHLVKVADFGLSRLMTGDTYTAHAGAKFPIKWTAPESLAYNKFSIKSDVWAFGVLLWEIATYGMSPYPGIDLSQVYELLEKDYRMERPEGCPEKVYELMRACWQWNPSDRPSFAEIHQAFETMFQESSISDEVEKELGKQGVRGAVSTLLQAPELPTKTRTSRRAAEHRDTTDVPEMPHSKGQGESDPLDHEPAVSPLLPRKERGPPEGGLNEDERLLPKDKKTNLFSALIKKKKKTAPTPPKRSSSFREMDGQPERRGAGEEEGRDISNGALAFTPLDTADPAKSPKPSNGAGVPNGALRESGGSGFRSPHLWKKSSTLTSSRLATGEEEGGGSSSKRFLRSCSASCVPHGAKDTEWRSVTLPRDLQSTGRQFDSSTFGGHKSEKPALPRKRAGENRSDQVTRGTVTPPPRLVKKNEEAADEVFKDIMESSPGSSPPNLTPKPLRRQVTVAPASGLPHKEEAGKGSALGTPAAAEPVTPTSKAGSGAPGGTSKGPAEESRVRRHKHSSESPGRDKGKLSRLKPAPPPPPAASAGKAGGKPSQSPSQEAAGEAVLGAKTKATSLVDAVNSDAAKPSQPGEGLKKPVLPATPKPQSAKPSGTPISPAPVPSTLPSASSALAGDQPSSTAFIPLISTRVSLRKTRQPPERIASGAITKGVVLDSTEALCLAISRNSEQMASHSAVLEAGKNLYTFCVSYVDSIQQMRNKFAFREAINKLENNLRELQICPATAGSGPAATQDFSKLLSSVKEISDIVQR

## CCN(CC)CCOc1ccc(Nc2cc(NC(=O)Nc3c(Cl)cccc3Cl)ncn2)cc1
[1]
  IC50: 350 nM
[2]
  IC50: > 10000 nM
[3]
  IC50: > 10000 nM
[4]
  IC50: > 10000 nM
[5]
  IC50: > 10000 nM
[6]
  IC50: > 10000 nM
[7]
  IC50: > 10000 nM
[8]
  IC50: > 10000 nM
[9]
  IC50: > 10000 nM
[10]
  IC50: 66 nM
[11]
  IC50: 570 nM
[12]
  IC50: 930 nM
[13]
  IC50: 960 nM
Angiopoietin-1 receptor
  IC50: 300 nM
[14]
  IC50: 150 nM
Ephrin type-B receptor 4
  IC50: 430 nM
[15]
  IC50: 250 nM

Reference: ChEMBL document CHEMBL1141507, “Entry into a new class of protein kinase inhibitors by pseudo ring design” (Bioorg Med Chem Lett, 2008)
